Results taken from patent EP0634173B1, “24-epi-1-alpha-hydroxyvitamin D2 for treating osteoporosis” (WISCONSIN ALUMNI RESEARCH FOUNDATION, priority 1993, dated 1995).
Like-named read-outs stand apart in the source and are kept apart here. Marks after values point to notes of the source that are not given here.

Assays:
vitamin D-deficient rat [1] = settings: cited from earlier work; for Bone Mobilization Serum Ca: 20 h prior to sacrifice, vitamin D-free, low calcium diet; for activity in mobilizing calcium from bone: result in words, animals on a low calcium diet
[2] = system: rats made osteoporotic by ovariectomy; test: Restoration of bone mass (femur ash) in oophorectomized rats; assay type: in vivo, rat; settings: for Total Femur Ash (mg ± SEM) / Ash (% ± SEM): oophorectomized rats, 325 pmol/day for 20 days by Alzet osmotic minipump; for Ash (% ± SEM): femur; for restoration of bone mass: result in words, previously tested, compared with the compound of the present study
From the text: At 13 weeks, the animals were either sham-operated or oophorectomized. They continued on the same diet for an additional 16 weeks. Ouring the last 20 days, the animals received the indicated dose of either 1α-hydroxyvitamin D2 or 24-epi-1α-hydroxyvitamin D2, in propylene glycol, delivered each day by Alzet osmotic minipump for a period of 20 days. The animals were killed and their femurs were used to determine total bone ash and percent ash. There were 6 animals in each group and the data are expressed as average ± standard error of the mean. Oophorectomy results in a lack of estrogen reminiscent of the menopausal state.

vitamin D-deficient rat [3] = settings: cited from earlier work; for Ca Transport S/M Ratio: 20 h prior to sacrifice, vitamin D-free, low calcium diet
[4] = system: human leukemia cells (HL-60 cells); settings: 4-day trial period, cited from earlier work
[5] = system: human leukemia cells (HL-60 cells); settings: cited from earlier work
[6] = system: human leukemia cells (HL-60 cells); settings: 4-day trial period, cited from earlier work; remark: listed apart in the source
[7] = system: human leukemia cells (HL-60 cells); test: HL-60 cell differentiation, text summary over both NBT-reduction and phagocytosis assays; assay type: cell-based; settings: HL-60 cell differentiation activity
Protocol: The assays were conducted as described by Ostrem et al (J. Biol. Chem. 262, 14164-14171, 1987), and by DeLuca et al (U. S. Patent 4,717,721). […] Even at doses as low as 10^-8M, this compound produced approximately 64-67% differentiation in the 4-day trial period in both the NBT-reduction and the phagocytosis assay. […] Thus, 1α-hydroxy-24-epi-vitamin D2 has little or no activity in promoting differentiation of promyelocytes to monocytes.

Row | Structure (SMILES) | Bone Mobilization Serum Ca (vitamin D-deficient rat [1]; 325 pmol) | activity in mobilizing calcium from bone (vitamin D-deficient rat [1]) | Total Femur Ash (mg ± SEM) [2] | Ash (% ± SEM) [2] | Ca Transport S/M Ratio (vitamin D-deficient rat [3]; 325 pmol) | restoration of bone mass [2] | % Differentiation Phagocytosis ([4]; 1 x 10^-7 M) | % Differentiation Phagocytosis ([4]; 1 x 10^-8 M) | % Differentiation NBT Reduction ([6]; 1 x 10^-7 M) | % Differentiation NBT Reduction ([6]; 1 x 10^-8 M) | % Differentiation Phagocytosis ([4]; 2 x 10^-8 M) | % Differentiation Phagocytosis ([4]; 5 x 10^-8 M) | differentiation ([5]; 1-2 x 10^-8M) | differentiation ([5]; 10^-7M) | % Differentiation NBT Reduction ([6]; 2 x 10^-8 M) | % Differentiation NBT Reduction ([6]; 5 x 10^-8 M) | other results
1 | C=C1/C(=C\C=C2/CCC[C@]3(C)[C@@H]([C@H](C)/C=C/[C@H](C)C(C)C)CC[C@@H]23)C[C@@H](O)C[C@@H]1O [1α-Hydroxy-vitamin D2, 1α-hydroxyvitamin D2] | 5.3 ± 0.15^a mg % | strongly active | 377 mg | 58.6 ± 0.55% | 5.4 ± 0.37^a |  |  |  |  |  |  |  |  |  |  |  | Total Femur Ash (mg ± SEM) ([2]; listed as 1α-OH-D2): 377 ± 15.2^c mg
2 | C=C1/C(=C\C=C2/CCC[C@]3(C)[C@@H]([C@H](C)CCCC(C)(C)O)CC[C@@H]23)C[C@@H](O)C[C@@H]1O [1α,25-Dihydroxy-vitamin D3, 1α,25-dihydroxyvitamin D3] |  |  |  |  |  | restored some bone mass | 89 ± 3% | 67 ± 3% | 87 ± 2% | 64 ± 2% |  |  |  |  |  |  | differentiation ([5]; 10^-8M, 4-day trial period, both NBT-reduction and phagocytosis assay): 64-67%
3 | C=C1/C(=C\C=C2/CCC[C@]3(C)[C@@H]([C@H](C)/C=C/[C@@H](C)C(C)C)CC[C@@H]23)C[C@@H](O)C[C@@H]1O [1α-Hydroxy-24-epi-vitamin D2, 24-epi-1α-hydroxyvitamin D2] | 3.9 ± 0.39^b mg % | no activity | 400 mg | 60.5 ± 0.5% | 4.3 ± 0.42^a |  | 16 ± 2% | 4 ± 2% | 22 ± 2% | 4 ± 2% | 6 ± 3% | 9 ± 1% | does not elicit a significant differentiation response | 16-20% | 6 ± 2% | 14 ± 2% | Bone Mobilization Serum Ca (vitamin D-deficient rat [1]; 650 pmol): 4.1 ± 0.23^b mg %; Total Femur Ash (mg ± SEM) ([2]; listed as 24-epi-1α-OH-D2): 400 ± 16.4^d mg; Ca Transport S/M Ratio (vitamin D-deficient rat [3]; 650 pmol): 4.4 ± 0.70^a; activity in stimulating intestinal calcium transport (vitamin D-deficient rat [3]; result in words, data of Table 1): high activity
4 | C=C1/C(=C\C=C2/CCC[C@]3(C)[C@@H]([C@H](C)/C=C/[C@@H](C)C(C)(C)O)CC[C@@H]23)C[C@@H](O)C[C@@H]1O [1α,25-Dihydroxy-24-epi-vitamin D2, 1α,25-dihydroxy-24-epi-vitamin D2] |  |  |  |  |  |  | 81 ± 3% | 40 ± 3% | 80 ± 3% | 39 ± 3% | 49 ± 2% | 62 ± 3% | 40-50% | 80% | 48 ± 3% | 64 ± 3% | differentiation ([5]; 5 x 10^-8M): > 60%; times less active than the 1α,25-dihydroxyvitamin D3 standard [7]: about 5
5 | C=C1/C(=C\C=C2/CCC[C@]3(C)[C@@H]([C@H](C)CCCC(C)C)CC[C@@H]23)C[C@@H](O)C[C@@H]1O [1α-hydroxyvitamin D3] |  |  |  |  |  | restored some bone mass |  |  |  |  |  |  |  |  |  |  | 
